Molecules are shown by their SMILES.

The term AC50 denotes the concentration giving half of the maximal activity seen.

The target in this experiment is hPK-M2 (Homo sapiens, UniProt P14618). The experiment in a line: Luminescent pyruvate kinase-luciferase coupled assay (KinaseGlo). Conditions: for activation at 57 µM: KinaseGlo, % activation at 57 μM of compound, read-out: hPK, M2 Max. Res.; for AC50: luminescent pyruvate kinase-luciferase coupled assay (KinaseGlo), tables, read-out: hPK, M2 AC50. The format is biochemical. The method, then:
Luminescent Pyruvate Kinase-Luciferase Coupled Assay.
Production of a luminescent signal based on the generation of ATP by pyruvate kinase was determined by using the ATP-dependent enzyme firefly luciferase. Three μL of substrate mix (at r.t.) in assay buffer (50 mM imidazole pH 7.2, 50 mM KCl, 7 mM MgCl2, 0.01% tween 20, 0.05% BSA) was dispensed into Kalypsys white solid bottom 1,536 well microtiter plates using a bottle-valve solenoid-based dispenser (Kalypsys). The final concentrations of substrates in the assay were 0.1 mM ADP and 0.5 mM PEP. […] Microtiter plates were incubated at r.t. for 1 hour and 2 uL of luciferase detection mix (Kinase-Glo, Promega at 4° C. protected from light) was added and luminescence was read with a ViewLux (Perkin Elmer) using a 5 second exposure/plate. Data was normalized for AC50 values to control columns containing uninhibited enzyme (n), and AC100 inhibition (i) according the following equation: Activation (%)=[(c−n)/(n−i)]*100 where c=compound, n=DMSO neutral, i=no enzyme control. […] Monitoring of activation was accomplished using enzyme at 3× the final concentration.
For orientation: In Kinase-Glo more light means more ATP remaining.

hPK-M2, sequence (P14618 whole entry): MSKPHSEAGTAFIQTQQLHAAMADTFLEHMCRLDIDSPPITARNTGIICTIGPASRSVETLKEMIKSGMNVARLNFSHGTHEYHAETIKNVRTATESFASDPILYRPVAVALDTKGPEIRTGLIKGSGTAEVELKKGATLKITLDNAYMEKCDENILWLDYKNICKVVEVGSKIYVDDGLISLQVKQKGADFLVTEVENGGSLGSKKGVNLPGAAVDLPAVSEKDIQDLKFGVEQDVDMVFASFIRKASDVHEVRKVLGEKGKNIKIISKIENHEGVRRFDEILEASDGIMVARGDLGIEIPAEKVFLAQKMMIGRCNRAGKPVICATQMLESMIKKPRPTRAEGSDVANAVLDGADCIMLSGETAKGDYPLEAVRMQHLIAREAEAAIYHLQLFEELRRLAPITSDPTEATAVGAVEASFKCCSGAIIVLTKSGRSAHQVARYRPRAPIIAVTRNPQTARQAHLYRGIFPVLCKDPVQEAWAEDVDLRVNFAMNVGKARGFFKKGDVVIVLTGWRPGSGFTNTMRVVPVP

Turning to `O=S(=O)(NC1CCN(S(=O)(=O)c2c(F)cccc2F)CC1)c1ccc2c(c1)OCCO2` [Compound 39, N-(1-(2,6-difluorophenylsulfonyl)piperidin-4-yl)-2,3-dihydrobenzo[b][1,4]dioxine-6-sulfonamide], the activation at 57 µM was determined as 101 ± 1.9% and the AC50 was 3.69 ± 1.26 µM.
Taken in the same sequence, the figures for `O=S(=O)(NC1CCN(S(=O)(=O)c2ccc3c(c2)OCCO3)CC1)c1c(F)cccc1F` [Compound 40, N-(1-(2,3-dihydrobenzo[b][1,4]dioxin-6-ylsulfonyl)piperidin-4-yl)-2,6-difluorobenzenesulfonamide] were 99.6 ± 3.1% and 9 ± 4.5 µM.
Taken in the same sequence, the figures for `O=S(=O)(NC1CCN(S(=O)(=O)c2c(F)cccc2F)C1)c1ccc2c(c1)OCCO2` (centres unmarked) [Compound 41, N-(1-(2,6-difluorophenylsulfonyl)pyrrolidin-3-yl)-2,3-dihydrobenzo[b][1,4]dioxine-6-sulfonamide] were 82.4 ± 18% and over 15 µM.
For `O=S(=O)(NC1CCN(S(=O)(=O)c2ccc3c(c2)OCCO3)C1)c1c(F)cccc1F` (centres unmarked) [Compound 42, N-(1-(2,3-dihydrobenzo[b][1,4]dioxin-6-ylsulfonyl)pyrrolidin-3-yl)-2,6-difluorobenzenesulfonamide], in that order: 83.7 ± 24.2% and over 10 µM.
With `O=S(=O)(NCC1CN(S(=O)(=O)c2c(F)cccc2F)C1)c1ccc2c(c1)OCCO2` [Compound 43], the activation at 57 µM stood at 93.3 ± 9% and the AC50 came out at 4.47 µM.
For `O=S(=O)(NCC1CN(S(=O)(=O)c2ccc3c(c2)OCCO3)C1)c1c(F)cccc1F` [Compound 44, N-((1-(2,3-dihydrobenzo[b][1,4]dioxin-6-ylsulfonyl)azetidin-3-yl)methyl)-2,6-difluorobenzenesulfonamide], in that order: 108 ± 5.3% and 3.05 ± 0.2 µM.
Taken in the same sequence, the figures for `C[C@H]1CN(S(=O)(=O)c2c(F)cccc2F)CCN1S(=O)(=O)c1ccc2c(c1)OCCO2` [Compound 45, (S)-4-(2,6-difluorophenylsulfonyl)-1-(2,3-dihydrobenzo[b][1,4]dioxin-6-ylsulfonyl)-2-methylpiperazine] were 109 ± 9.4% and 4.34 ± 0.74 µM.
For `C[C@@H]1CN(S(=O)(=O)c2c(F)cccc2F)CCN1S(=O)(=O)c1ccc2c(c1)OCCO2` [Compound 46, (R)-4-(2,6-difluorophenylsulfonyl)-1-(2,3-dihydrobenzo[b][1,4]dioxin-6-ylsulfonyl)-2-methylpiperazine], in that order: 98.8 ± 2.6% and 3.1 ± 1.17 µM.
On to `C[C@@H]1CN(S(=O)(=O)c2ccc3c(c2)OCCO3)CCN1S(=O)(=O)c1c(F)cccc1F` [Compound 47, (R)-1-(2,6-difluorophenylsulfonyl)-4-(2,3-dihydrobenzo[b][1,4]dioxin-6-ylsulfonyl)-2-methylpiperazine], for which the activation at 57 µM is 108 ± 9.9% and the AC50 turned out to be 9.18 ± 2.56 µM.
Taken in the same sequence, the figures for `C[C@H]1CN(S(=O)(=O)c2ccc3c(c2)OCCO3)CCN1S(=O)(=O)c1c(F)cccc1F` [Compound 48, (S)-1-(2,6-difluorophenylsulfonyl)-4-(2,3-dihydrobenzo[b][1,4]dioxin-6-ylsulfonyl)-2-methylpiperazine] were 108 ± 8.4% and 2.96 ± 0.2 µM.
For `Cc1cc2c(s1)c1cnn(Cc3ccccc3F)c(=O)c1n2C` [Compound 66, 2,4-Methyl-6-[(2-fluorophenyl)methyl]-4H-thieno[3,2-b]pyrrole[3,2-d]pyridazinone], the activation at 57 µM amounted to 122 ± 6.1% and the half-maximal activity concentration (AC50) is 0.063 ± 0.02 µM.
For `CCc1cc2c(s1)c1cnn(Cc3ccccc3F)c(=O)c1n2C` [Compound 68, 2-Ethyl-4-methyl-6-[(2-fluorophenyl)methyl]-4H-thieno[3,2-b]pyrrole[3,2-d]pyridazinone], in that order: 105 ± 5.8% and 0.1 ± 0.03 µM.
With `Cn1c2ccsc2c2cnn(Cc3ccccc3F)c(=O)c21` [Compound 70, 4-Methyl-6-[(2-fluorophenyl)methyl]-4H-thieno[3,2-b]pyrrole[3,2-d]pyridazinone], the activation at 57 µM was found to be 93.2 ± 6.6% and the AC50 was found to be 0.605 ± 0.18 µM.

The values above are taken from patent US8937067B2, “Activators of human pyruvate kinase” (The United States of America, as represented by the …, priority 2008, dated 2015).
